The text below walks through data of ChEMBL document CHEMBL1817560, “Selectivity of kinase inhibitor fragments” (J Med Chem, 2011).

The target of experiment [1] is T1, Inhibitor of nuclear factor kappa-B kinase subunit beta (Homo sapiens, UniProt O14920).
T1 sequence (O14920 whole entry): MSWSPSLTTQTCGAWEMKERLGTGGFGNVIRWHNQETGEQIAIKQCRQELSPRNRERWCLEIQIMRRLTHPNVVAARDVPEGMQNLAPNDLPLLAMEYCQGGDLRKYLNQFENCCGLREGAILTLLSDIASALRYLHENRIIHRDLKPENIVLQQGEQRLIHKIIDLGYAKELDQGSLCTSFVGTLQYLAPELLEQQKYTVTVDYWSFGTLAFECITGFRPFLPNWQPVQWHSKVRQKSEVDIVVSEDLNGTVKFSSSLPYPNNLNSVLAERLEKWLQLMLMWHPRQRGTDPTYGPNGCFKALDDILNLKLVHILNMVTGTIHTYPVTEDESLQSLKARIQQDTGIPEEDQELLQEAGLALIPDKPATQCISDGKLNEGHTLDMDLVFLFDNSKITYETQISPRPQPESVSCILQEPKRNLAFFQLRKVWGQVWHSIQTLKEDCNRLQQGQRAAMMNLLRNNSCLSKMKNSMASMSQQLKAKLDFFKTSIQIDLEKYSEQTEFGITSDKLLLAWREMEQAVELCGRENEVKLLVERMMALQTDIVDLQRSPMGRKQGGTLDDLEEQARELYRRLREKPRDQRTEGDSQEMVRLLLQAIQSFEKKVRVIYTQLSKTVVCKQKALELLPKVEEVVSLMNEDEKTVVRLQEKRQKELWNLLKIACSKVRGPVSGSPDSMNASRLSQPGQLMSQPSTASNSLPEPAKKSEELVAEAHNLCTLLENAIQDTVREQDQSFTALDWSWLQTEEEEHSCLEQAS
In words: biochemical. Format: cell-based.

Experiment [2] has as its target Mitogen-activated protein kinase 14 (Homo sapiens, UniProt Q16539). Briefly: Inhibition of p38alpha expressed in Escherichia coli or baculovirus-infected insect cells by TR-FRET assay.
The target in experiment [3] is Tyrosine-protein kinase SYK (Homo sapiens, UniProt P43405). In words: Inhibition of SYK expressed in Escherichia coli or baculovirus-infected insect cells by TR-FRET assay.
Experiment [4] concerns the target Mitogen-activated protein kinase 8 (Homo sapiens, UniProt P45983). Briefly: Inhibition of JNK1 expressed in Escherichia coli or baculovirus-infected insect cells by TR-FRET assay.

A value given as a limit tells only on which side of the number the result lay.

Sequence of Mitogen-activated protein kinase 8 (P45983 whole entry): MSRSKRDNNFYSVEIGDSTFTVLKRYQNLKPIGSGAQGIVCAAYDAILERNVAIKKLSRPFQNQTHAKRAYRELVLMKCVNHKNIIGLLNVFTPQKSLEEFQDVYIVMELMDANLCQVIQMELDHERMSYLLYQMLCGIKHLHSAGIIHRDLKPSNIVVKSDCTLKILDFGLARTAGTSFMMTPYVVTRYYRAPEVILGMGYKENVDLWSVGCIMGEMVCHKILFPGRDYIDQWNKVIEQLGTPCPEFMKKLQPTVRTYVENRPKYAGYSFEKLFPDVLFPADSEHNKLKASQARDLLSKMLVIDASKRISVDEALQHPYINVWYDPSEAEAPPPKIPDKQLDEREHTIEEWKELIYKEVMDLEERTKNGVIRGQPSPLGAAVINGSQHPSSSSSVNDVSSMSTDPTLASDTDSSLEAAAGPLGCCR
Sequence of Mitogen-activated protein kinase 14 (Q16539 whole entry): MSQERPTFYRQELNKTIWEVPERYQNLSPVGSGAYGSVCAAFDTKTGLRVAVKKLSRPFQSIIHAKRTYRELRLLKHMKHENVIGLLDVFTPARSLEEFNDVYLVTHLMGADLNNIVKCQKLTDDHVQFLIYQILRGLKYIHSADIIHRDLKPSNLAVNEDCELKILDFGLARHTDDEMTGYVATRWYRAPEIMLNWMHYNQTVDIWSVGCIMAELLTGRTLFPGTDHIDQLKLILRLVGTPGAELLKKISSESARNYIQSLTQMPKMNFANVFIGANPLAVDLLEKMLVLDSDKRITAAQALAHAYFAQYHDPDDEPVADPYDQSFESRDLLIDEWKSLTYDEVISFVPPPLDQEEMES

Turning to `c1ccc(Nc2ncccn2)cc1`, the IC50 in experiment [1] (read-out: IC50) is above 667 µM; in experiment [1] (read-out: pIC50 (converted)), above 631 µM; in experiment [2] (read-out: IC50), above 667 µM; in experiment [2] (read-out: pIC50 (converted)) it was above 631 µM.

`O=C(Nc1ccccc1)Nc1ccccc1`: the IC50 in experiment [3] was above 660 µM.

For `c1cnc2[nH]ccc2c1`, the IC50 in experiment [1] (read-out: IC50) was above 667 µM; in experiment [1] (read-out: pIC50 (converted)), above 631 µM; in experiment [4] (read-out: IC50), above 667 µM; in experiment [4] (read-out: pIC50 (converted)), above 631 µM.
